Experimental data reported in US20190076384A1, “METHODS FOR TREATING UREA CYCLE DISORDERS” (priority 2017, published 2019).
pKi: −log10 of the molar value. Read-outs that look alike come from different tables or passages of the source.

Legend:
[1] = biological target: Cytochrome P450 3A4 (Homo sapiens, UniProt P08684); test: clinical; conditions: for overall 1′-OH-midazolam exposure (based on AUC) increased by: free+conjugates
Procedure: (§1) Methodology: This was a Phase 1, open-label, monosequence crossover, drug-drug interaction study of RAVICTI® and midazolam in healthy male and female subjects.
(§2) Single doses of midazolam HCl syrup (2 mg/mL) were administered in the morning following an approximate 10-hour fast on Days 1 and 5 (coadministered with RAVICTI® on Day 5) just prior to administration of breakfast (˜5 minutes before breakfast).
(§3) Pharmacokinetics: Blood samples for the analysis of plasma midazolam and its metabolite (1′-OH-midazolam, free+conjugates) levels were collected via an indwelling catheter and/or via direct venipuncture. Blood samples were collected on Days 1 and 5 at the following time points: predose, 0.5, 1, 2, 3, 4, 6, 8, 10, 12, 16, and 24 hours postdose. In addition, five plasma PK samples for GPB analysis were collected on Day 4 at the following time points: at 1 minute, 30 minutes, and 1 hour following the first morning dose of RAVICTI; at 30 minutes and 1 hour post second dose of RAVICTI.
(§4) Pharmacokinetics: The possible drug-drug interaction was examined between coadministration of RAVICTI and midazolam (test) and midazolam administered alone (reference). An analysis of variance (ANOVA), with treatment as a fixed effect and subject as a random effect, was performed. Data for Cmax, AUC0-t, and AUC0-∞, as appropriate, were natural log (ln)-transformed prior to analysis. The 90% confidence intervals (CIs) of the test group means relative to the reference group means were obtained by taking the antilog of the corresponding 90% CIs for the differences between the means on the log scale, i.e., ratio of geometric least-squares (LS) means.

[2] = biological target: T1, CYP2C9 (Homo sapiens, UniProt P11712); test: clinical; conditions: both, human, plasma, oral, 200 mg
T1 sequence (P11712 whole entry): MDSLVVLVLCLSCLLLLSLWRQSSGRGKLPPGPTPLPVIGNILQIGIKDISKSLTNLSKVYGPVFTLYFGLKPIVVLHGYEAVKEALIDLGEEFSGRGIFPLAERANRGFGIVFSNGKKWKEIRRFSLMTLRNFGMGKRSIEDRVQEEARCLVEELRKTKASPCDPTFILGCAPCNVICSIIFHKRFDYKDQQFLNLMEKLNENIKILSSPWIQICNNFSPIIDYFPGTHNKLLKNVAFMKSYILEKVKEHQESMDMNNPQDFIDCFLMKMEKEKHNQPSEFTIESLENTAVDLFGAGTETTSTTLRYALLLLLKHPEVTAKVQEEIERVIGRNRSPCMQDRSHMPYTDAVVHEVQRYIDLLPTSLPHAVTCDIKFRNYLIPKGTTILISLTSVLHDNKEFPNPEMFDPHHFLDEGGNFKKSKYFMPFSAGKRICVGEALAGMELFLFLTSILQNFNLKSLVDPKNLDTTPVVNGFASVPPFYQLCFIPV
Procedure: (§5) Methodology: This was an open-label, 2-period, monosequence crossover, drug-drug interaction (DDI) study of RAVICTI and celecoxib in healthy male and female subjects.
(§6) Test Product, Dose, Duration, and Mode of Administration: In Treatment A (Period 1), subjects received 200 mg celecoxib (1×200 mg capsule) administered orally with approximately 240 mL of water following an overnight fast and approximately 5 minutes prior to the start of a standard breakfast on Day 1.
(§7) Pharmacokinetics: Blood samples (4 mL) for the analysis of plasma celecoxib were collected on Days 1 (Period 1) and 4 (Period 2) at the following time points: predose (Hour 0) and 1, 2, 3, 4, 6, 8, 12, 16, 24, 36, 48, 60, and 72 hours postdose. A blood sample (6 mL) for CYP2C9 genotyping was collected at screening to exclude any subjects with a slow metabolizer genotype (i.e., CYP2C9*2/*2, CYP2C9*2/*3, CYP2C9*1/*3, and CYP2C9*3/*3). PK parameters for celecoxib in plasma were computed following Day 1 (Period 1) and Day 4 (Period 2) blood draws and included AUC0-t, AUC0-inf, AUC%extr, Cmax, tmax, t1/2, kel, and CL/F.
(§8) Pharmacokinetics: The possible DDI was examined between co-administration of RAVICTI and celecoxib (Treatment B, test) and celecoxib administered alone (Treatment A, reference). An analysis of variance (ANOVA) was performed with treatment as a fixed effect and subject as a random effect. Data for AUC0-t, AUC0-inf, and Cmax, as appropriate, were ln-transformed prior to analysis. The 90% confidence intervals (CIs) of the test group means relative to the reference group means were obtained by taking the antilog of the corresponding 90% CIs for the differences between the means on the log scale, i.e., ratio of geometric least-squares (LS) means.

[3] = biological target: Cytochrome P450 2C9 (Homo sapiens, UniProt P11712); test: clinical; conditions: 200 mg celecoxib with RAVICTI 4 mL three times a day for 6 days, fed conditions
Sequence of Cytochrome P450 2C9 (P11712 whole entry): as above
Procedure: as §5, §6, §7, §8

[4] = biological target: CYP3A4 (Homo sapiens, UniProt P08684); test: clinical; conditions: both, human, in vivo, 3 mg
Sequence of CYP3A4 (P08684 whole entry): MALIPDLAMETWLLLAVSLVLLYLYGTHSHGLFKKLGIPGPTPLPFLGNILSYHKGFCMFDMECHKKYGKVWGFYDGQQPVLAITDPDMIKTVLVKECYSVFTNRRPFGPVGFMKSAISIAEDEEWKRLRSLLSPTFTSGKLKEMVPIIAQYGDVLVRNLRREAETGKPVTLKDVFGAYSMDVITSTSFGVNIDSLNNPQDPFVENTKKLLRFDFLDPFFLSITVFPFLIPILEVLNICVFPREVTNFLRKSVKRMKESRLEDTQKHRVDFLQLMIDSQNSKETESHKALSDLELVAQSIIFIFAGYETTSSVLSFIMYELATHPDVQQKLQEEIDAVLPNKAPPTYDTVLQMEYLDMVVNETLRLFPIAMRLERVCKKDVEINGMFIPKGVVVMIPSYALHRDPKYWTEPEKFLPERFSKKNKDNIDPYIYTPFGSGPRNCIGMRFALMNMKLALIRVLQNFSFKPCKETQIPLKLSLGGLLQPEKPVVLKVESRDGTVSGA
Procedure: as §1, §2, §3, §4

[5] = biological target: T2, CYP2C8 (Homo sapiens, UniProt P10632); test: In vitro CYP inhibition study, human liver microsomes, CYP2C8; assay type: in vitro ADME; conditions: for % Inhibition: Taxol 6α-hydroxylase
T2 construct: from tissue; host or cells: human liver microsomes
T2 sequence (P10632 1-490): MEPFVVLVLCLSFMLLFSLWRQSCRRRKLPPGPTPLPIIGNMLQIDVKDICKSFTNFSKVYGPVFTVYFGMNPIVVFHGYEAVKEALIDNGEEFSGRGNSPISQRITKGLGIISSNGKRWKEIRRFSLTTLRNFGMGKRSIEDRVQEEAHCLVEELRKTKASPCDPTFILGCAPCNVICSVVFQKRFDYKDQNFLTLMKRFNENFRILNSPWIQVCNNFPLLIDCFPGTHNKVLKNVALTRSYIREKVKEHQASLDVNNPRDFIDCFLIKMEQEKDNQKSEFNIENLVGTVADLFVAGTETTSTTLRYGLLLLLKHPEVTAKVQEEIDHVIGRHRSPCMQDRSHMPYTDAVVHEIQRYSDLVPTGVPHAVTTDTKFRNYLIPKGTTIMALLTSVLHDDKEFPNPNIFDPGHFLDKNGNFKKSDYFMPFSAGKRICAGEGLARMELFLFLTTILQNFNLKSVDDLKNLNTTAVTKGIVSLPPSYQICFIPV

[6] = biological target: T1, CYP2C9; test: In vitro CYP inhibition study, human liver microsomes, CYP2C9
[7] = biological target: T3, CYP2C19 (Homo sapiens, UniProt P33261); assay type: in vitro ADME; conditions: for % Inhibition: S-Mephenytoin 4′-hydroxylase
T3 construct: from tissue; host or cells: human liver microsomes
T3 sequence (P33261 whole entry): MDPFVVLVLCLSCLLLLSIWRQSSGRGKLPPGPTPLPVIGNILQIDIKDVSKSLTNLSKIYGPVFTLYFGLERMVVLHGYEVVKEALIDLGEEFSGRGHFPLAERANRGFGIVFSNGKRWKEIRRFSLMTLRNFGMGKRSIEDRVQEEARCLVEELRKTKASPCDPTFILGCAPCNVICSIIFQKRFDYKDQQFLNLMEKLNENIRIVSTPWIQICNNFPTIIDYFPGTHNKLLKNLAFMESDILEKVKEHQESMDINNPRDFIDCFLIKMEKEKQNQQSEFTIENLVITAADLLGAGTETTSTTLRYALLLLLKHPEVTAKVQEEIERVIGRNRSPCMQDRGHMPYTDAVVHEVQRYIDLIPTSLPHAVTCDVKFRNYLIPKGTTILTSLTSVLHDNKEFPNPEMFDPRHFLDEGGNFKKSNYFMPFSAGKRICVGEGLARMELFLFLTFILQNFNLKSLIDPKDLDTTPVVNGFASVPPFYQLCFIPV

[8] = biological target: T4, CYP1A2 (Homo sapiens, UniProt P05177); assay type: in vitro ADME; conditions: for % Inhibition: 7-ethoxyresorufin-O-deethylase
T4 construct: from tissue; host or cells: human liver microsomes
T4 sequence (P05177 1-516): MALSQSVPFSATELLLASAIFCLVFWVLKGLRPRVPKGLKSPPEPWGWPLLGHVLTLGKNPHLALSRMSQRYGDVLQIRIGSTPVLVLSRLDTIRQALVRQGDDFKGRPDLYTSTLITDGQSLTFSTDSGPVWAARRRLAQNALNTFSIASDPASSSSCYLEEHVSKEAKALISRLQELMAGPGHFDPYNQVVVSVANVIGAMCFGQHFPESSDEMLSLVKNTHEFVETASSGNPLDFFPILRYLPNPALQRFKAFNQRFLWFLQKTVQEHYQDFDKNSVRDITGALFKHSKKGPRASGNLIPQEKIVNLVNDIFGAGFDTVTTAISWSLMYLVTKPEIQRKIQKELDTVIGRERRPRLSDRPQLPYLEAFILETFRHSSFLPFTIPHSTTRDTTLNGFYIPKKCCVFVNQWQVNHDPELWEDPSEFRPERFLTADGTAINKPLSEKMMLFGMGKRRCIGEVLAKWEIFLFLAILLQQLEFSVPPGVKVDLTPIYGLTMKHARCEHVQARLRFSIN

[9] = biological target: CYP2D6 (Homo sapiens, UniProt P10635); conditions: for % Inhibition: Bufuralol 1′-hydroxylase, 20.7 mM (2.818 mg/ml)
Sequence of CYP2D6 (P10635 whole entry): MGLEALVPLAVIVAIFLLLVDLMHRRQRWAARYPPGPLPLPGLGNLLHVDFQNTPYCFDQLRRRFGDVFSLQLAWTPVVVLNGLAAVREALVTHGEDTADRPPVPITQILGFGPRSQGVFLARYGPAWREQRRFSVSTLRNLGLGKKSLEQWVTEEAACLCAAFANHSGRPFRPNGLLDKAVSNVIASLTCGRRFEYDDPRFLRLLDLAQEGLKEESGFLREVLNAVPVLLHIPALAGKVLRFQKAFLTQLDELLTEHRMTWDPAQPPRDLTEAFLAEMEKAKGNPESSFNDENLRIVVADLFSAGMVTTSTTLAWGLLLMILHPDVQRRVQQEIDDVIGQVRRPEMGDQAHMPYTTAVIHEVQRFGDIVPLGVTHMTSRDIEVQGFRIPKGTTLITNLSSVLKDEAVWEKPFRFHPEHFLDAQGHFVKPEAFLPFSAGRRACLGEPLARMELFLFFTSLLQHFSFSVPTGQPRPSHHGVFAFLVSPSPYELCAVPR

[10] = biological target: T1, CYP2C9; conditions: for % Inhibition: Diclofenac 4′-hydroxylase, 20.7 mM (2.818 mg/ml)
[11] = system: CYP3A4/5; test: Induction of CYP3A4/5 in cultured human hepatocytes; conditions: for Relative potency (%): PAA 20.7 mM; for Fold induction: PAA 20.7 mM (concentration of maximum fold induction)
[12] = system: CYP3A4/5; assay type: in vitro ADME, human
[13] = system: CYP3A4/5
[14] = Mean peak concentration of PBA and PAA in different patient populations
[15] = after RAVICTI 4 mL three times a day for 3 days, fed conditions, healthy subjects
[16] = upon coadministration with multiple-dose RAVICTI
[17] = 20.7 mM (2.818 mg/ml), pre-incubation time 0 min
[18] = 20.7 mM (2.818 mg/ml), pre-incubation time 30 min
[19] = at a concentration higher than the observed plasma concentrations
[20] = 5 mM, pre-incubation time 0 min
[21] = 5 mM, pre-incubation time 30 min

Sequence of Cytochrome P450 3A4 (P08684 whole entry): as the sequence (P08684 whole entry) above

Molecule: OCc1ncc2n1-c1ccc(Cl)cc1C(c1ccccc1F)=NC2 [1′-OH-midazolam]
- mean AUC for 1-hydroxy midazolam higher than midazolam alone [1, 15]: 58%
- mean Cmax for 1-hydroxy midazolam higher than midazolam alone [1, 15]: 28%
- 1′-OH-midazolam Cmax (peak exposure) increased by [1, 16]: 28%
- overall 1′-OH-midazolam exposure (based on AUC) increased by [1, 16]: approximately 60%
- overall 1′-OH-midazolam exposure (based on AUC) increased by ([1]; upon coadministration with multiple-dose RAVICTI, listed as 1′-hydroxy-midazolam): 60%

Molecule: Cc1ccc(-c2cc(C(F)(F)F)nn2-c2ccc(S(N)(=O)=O)cc2)cc1 [Celecoxib, celecoxib]
- AUC(0-inf) [2]: 5440 ng·h/mL
- AUC(0-t) [2]: 5170 ng·h/mL
- Cmax [2]: 620 ng/mL
- mean AUC for celecoxib lower than celecoxib alone [3]: 8%
- mean Cmax for celecoxib lower than celecoxib alone [3]: 13%

Molecule: Cc1ncc2n1-c1ccc(Cl)cc1C(c1ccccc1F)=NC2 [Midazolam, midazolam]
- mean AUC for midazolam lower than midazolam alone [1, 15]: 32%
- mean Cmax for midazolam lower than midazolam alone [1, 15]: 25%
- midazolam overall exposure reduced by [1, 16]: ~32%
- midazolam peak exposure reduced by [1, 16]: approximately 26%
- midazolam peak exposure reduced by ([1]; upon coadministration with multiple-dose RAVICTI, listed as midazolam): 26%
- AUC(0-inf) [4]: 67 ng·h/mL
- AUC(0-t) [4]: 64.7 ng·h/mL
- Cmax [4]: 16.8 ng/mL

Molecule: phenylacetate [PAA]
- % Inhibition [5, 17]: 50%
- % Inhibition [5, 18]: 49%
- inhibition of CYP2C8 (in words) ([5]; at 20.7 mM): inhibited
- pKi [6]: 1.82
- % Inhibition [7, 17]: 37%
- % Inhibition [7, 18]: 37%
- inhibition of CYP2C19 (in words) ([7]; at 20.7 mM): inhibited
- % Inhibition [8, 17]: 58%
- % Inhibition [8, 18]: 47%
- inhibition of CYP1A2 (in words) ([8]; at 20.7 mM): inhibited
- % Inhibition ([9]; pre-incubation time 0 min): 49%
- % Inhibition ([9]; pre-incubation time 30 min): 57%
- inhibition of CYP2D6 (in words) ([9]; at 20.7 mM): inhibited
- % Inhibition ([10]; pre-incubation time 0 min): 47%
- % Inhibition ([10]; pre-incubation time 30 min): 44%
- inhibition of CYP2C9 (in words) ([10]; at 20.7 mM): inhibited
- effect on CYP2C9 (in words) [10, 19]: inhibitory effect
- [I]/Ki ratio, CYP2C9 ([10]; based on mean peak PAA concentration in UCD patients): < 0.1
- induction of CYP3A4/5 ([11]; cultured human hepatocytes, PAA): < 1.8 fold
- Relative potency (%) ([11]; donor Hu0793): 13.1%
- Fold induction ([11]; donor Hu0793): 1.4 fold
- Relative potency (%) ([11]; donor Hu4156): 18.2%
- Fold induction ([11]; donor Hu4156): 1.7 fold
- % Inhibition ([12]; Midazolam 1′-hydroxylase, 20.7 mM (2.818 mg/ml), pre-incubation time 0 min): 63%
- % Inhibition ([12]; Midazolam 1′-hydroxylase, 20.7 mM (2.818 mg/ml), pre-incubation time 30 min): 65%
- % Inhibition ([12]; Testosterone 6β-hydroxylase, 20.7 mM (2.818 mg/ml), pre-incubation time 0 min): 60%
- % Inhibition ([12]; Testosterone 6β-hydroxylase, 20.7 mM (2.818 mg/ml), pre-incubation time 30 min): 63%
- inhibition of CYP3A4/5 (in words) ([12]; at 20.7 mM): inhibited
- effect on CYP3A4 (in words) [12, 19]: inhibitory effect

Molecule: phenylbutyrate [PBA]
- inhibition of CYP2C8 (in words) ([5]; 5 mM (0.821 mg/ml)): did not inhibit
- % Inhibition [5, 20]: 24%
- % Inhibition [5, 21]: 27%
- inhibition of CYP2C19 (in words) ([7]; 5 mM (0.821 mg/ml)): did not inhibit
- % Inhibition [7, 20]: 26%
- % Inhibition [7, 21]: 19%
- inhibition of CYP1A2 (in words) ([8]; 5 mM (0.821 mg/ml)): did not inhibit
- % Inhibition [8, 20]: 6%
- % Inhibition [8, 21]: 2%
- extent of induction lower compared to the positive control (rifampicin) [13]: about 50%
- PBA Mean peak concentration ([14]; Cirrhotic - HE 9 ml BID): 0.1412 mg/mL
- PBA Mean peak concentration ([14]; Healthy volunteer): 0.037 mg/mL
- PBA Mean peak concentration ([14]; UCD adult): 0.0701 mg/mL
- PBA Mean peak concentration ([14]; UCD pediatric): 0.0956 mg/mL
- % Inhibition ([12]; Testosterone 6β-hydroxylase, 5 mM, pre-incubation time 0 min): 80%
- % Inhibition ([12]; Testosterone 6β-hydroxylase, 5 mM, pre-incubation time 30 min): 85%
